According to ChEMBL document CHEMBL1201862, “PubChem BioAssay data set” (2004):
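Values below derive from 48-hour exposures of cells grown in 96-well plates, with endpoints linearly interpolated between the two concentrations bracketing the appropriate inhibition level. GI50 marks 50% less growth.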 Calls of active or inactive are those of the source. No stated cut-off is given here; in the data, active = GI50 up to about 1.1 µM and inactive = higher.

How the values were obtained:
Test in all cases: DTP human tumour cell line panel, 48 h
NCI-H460 = tested on: NCI-H460
SK-MEL-5 = tested on: SK-MEL-5
TK-10 = tested on: TK-10
MOLT-4 = tested on: MOLT-4
UACC-257 = tested on: UACC-257
UO-31 = tested on: UO-31
SF-539 = tested on: SF-539
SK-MEL-2 = tested on: SK-MEL-2
SNB-75 = tested on: SNB-75
HCC 2998 = tested on: HCC 2998
LOX IMVI = tested on: LOX IMVI
SF-295 = tested on: SF-295
NCI-H23 = tested on: NCI-H23
HCT-15 = tested on: HCT-15
HT-29 = tested on: HT-29
SNB-19 = tested on: SNB-19
SNB-78 = tested on: SNB-78
SK-OV-3 = tested on: SK-OV-3
LXFL 529 = tested on: LXFL 529
K562 = tested on: K562
RXF 393 = tested on: RXF 393
RPMI-8226 = tested on: RPMI-8226
IGROV-1 = tested on: IGROV-1
SW-620 = tested on: SW-620
CCRF-CEM = tested on: CCRF-CEM
KM-20L2 = tested on: KM-20L2
Malme-3M = tested on: Malme-3M
UACC-62 = tested on: UACC-62
CAKI-1 = tested on: CAKI-1
NCI-H226 = tested on: NCI-H226
SK-MEL-28 = tested on: SK-MEL-28
SR = tested on: SR
SF-268 = tested on: SF-268
U-251 = tested on: U-251
M14 = tested on: M14
OVCAR-5 = tested on: OVCAR-5
COLO 205 = tested on: COLO 205
A549 = tested on: A549
DMS-273 = tested on: DMS-273
HCT-116 = tested on: HCT-116
ACHN = tested on: ACHN
OVCAR-3 = tested on: OVCAR-3
OVCAR-8 = tested on: OVCAR-8
EKVX = tested on: EKVX
HL-60 = tested on: HL-60
786-0 = tested on: 786-0
SN12C = tested on: SN12C
HOP-62 = tested on: HOP-62
M19-MEL = tested on: M19-MEL
DLD-1 = tested on: DLD-1
NCI-H522 = tested on: NCI-H522
A498 = tested on: A498
DMS-114 = tested on: DMS-114
KM12 = tested on: KM12
XF498 = tested on: XF498

COc1c(C(C)C)cc2c3c1OC(=O)[C@@]31CCCC(C)(C)C1CC2 (some centres undefined)
GI50 (NCI-H460): 40.7 µM (inactive) | GI50 (SK-MEL-5): 11.2 µM (inactive) | GI50 (TK-10): 25.2 µM (inactive) | GI50 (MOLT-4): 25.1 µM (inactive) | GI50 (UACC-257): 20.3 µM (inactive) | GI50 (UO-31): 11.7 µM (inactive) | GI50 (SF-539): 14 µM (inactive) | GI50 (SK-MEL-2): 28.1 µM (inactive) | GI50 (SNB-75): 22 µM (inactive) | GI50 (HCC 2998): 50.2 µM (inactive) | GI50 (LOX IMVI): 12.5 µM (inactive) | GI50 (SF-295): 24.5 µM (inactive) | GI50 (NCI-H23): 20 µM (inactive) | GI50 (HCT-15): 55.7 µM | GI50 (HT-29): 25.5 µM (inactive) | GI50 (SNB-19): 5.78 µM (inactive) | GI50 (SNB-78): 23.3 µM (inactive) | GI50 (SK-OV-3): 23.8 µM (inactive) | GI50 (LXFL 529): 16.6 µM (inactive) | GI50 (K562): 20.4 µM (inactive) | GI50 (RXF 393): 17.3 µM (inactive) | GI50 (RPMI-8226): 18.9 µM (inactive) | GI50 (IGROV-1): 23.1 µM (inactive) | GI50 (SW-620): 26.4 µM (inactive) | GI50 (CCRF-CEM): 18.5 µM (inactive) | GI50 (KM-20L2): 30.4 µM (inactive) | GI50 (Malme-3M): 27.2 µM (inactive) | GI50 (UACC-62): 24.4 µM (inactive) | GI50 (CAKI-1): > 100 µM (inactive) | GI50 (NCI-H226): 4.92 µM (inactive) | GI50 (SK-MEL-28): 27.4 µM (inactive) | GI50 (SR): 16.9 µM (inactive) | GI50 (SF-268): 28.7 µM (inactive) | GI50 (U-251): 20 µM (inactive) | GI50 (M14): 33.5 µM (inactive) | GI50 (OVCAR-5): 52.4 µM (inactive) | GI50 (COLO 205): 17.3 µM (inactive) | GI50 (A549): 13.6 µM (inactive) | GI50 (DMS-273): 23.4 µM (inactive) | GI50 (HCT-116): 9.2 µM (inactive) | GI50 (ACHN): 52.5 µM (inactive) | GI50 (OVCAR-3): 20.5 µM (inactive) | GI50 (OVCAR-8): 17.7 µM (inactive) | GI50 (EKVX): 14.6 µM (inactive) | GI50 (HL-60): 14.2 µM (inactive) | GI50 (786-0): 46.7 µM (inactive) | GI50 (SN12C): 51.9 µM (inactive) | GI50 (HOP-62): 39.4 µM (inactive) | GI50 (M19-MEL): 23.6 µM (inactive) | GI50 (DLD-1): 69.8 µM (inactive) | GI50 (NCI-H522): 9.18 µM (inactive)

N=C1CSC2=NC3=C(CCC/C3=C\c3ccccc3)C(c3ccccc3)N12 (centres undefined)
GI50 (NCI-H460): 3.42 µM (inactive) | GI50 (A498): 13.9 µM (inactive) | GI50 (SK-MEL-5): 6.31 µM (inactive) | GI50 (TK-10): 5.28 µM (inactive) | GI50 (MOLT-4): 2.49 µM (inactive) | GI50 (UACC-257): 11.5 µM (inactive) | GI50 (UO-31): 11.2 µM (inactive) | GI50 (SF-539): 6 µM (inactive) | GI50 (SK-MEL-2): 2.27 µM (inactive) | GI50 (SNB-75): 10.6 µM (inactive) | GI50 (HCC 2998): 3.31 µM (inactive) | GI50 (LOX IMVI): 2.26 µM (inactive) | GI50 (SF-295): 5.85 µM (inactive) | GI50 (NCI-H23): 3.93 µM (inactive) | GI50 (HT-29): 2.97 µM (inactive) | GI50 (SNB-19): 5.94 µM (inactive) | GI50 (SNB-78): 5.77 µM (inactive) | GI50 (SK-OV-3): 15.1 µM (inactive) | GI50 (DMS-114): 2.8 µM (inactive) | GI50 (LXFL 529): 4.89 µM (inactive) | GI50 (K562): 3.21 µM (inactive) | GI50 (RXF 393): 4.5 µM (inactive) | GI50 (RPMI-8226): 2.16 µM (inactive) | GI50 (IGROV-1): 5.6 µM (inactive) | GI50 (SW-620): 3.92 µM (inactive) | GI50 (CCRF-CEM): 2.24 µM (inactive) | GI50 (KM-20L2): 4.37 µM (inactive) | GI50 (Malme-3M): 17.2 µM (inactive) | GI50 (UACC-62): 9.23 µM (inactive) | GI50 (CAKI-1): 12.5 µM (inactive) | GI50 (NCI-H226): 6.38 µM (inactive) | GI50 (KM12): 3.7 µM (inactive) | GI50 (SK-MEL-28): 7.5 µM (inactive) | GI50 (SF-268): 11.8 µM (inactive) | GI50 (U-251): 3.42 µM (inactive) | GI50 (M14): 3.3 µM (inactive) | GI50 (OVCAR-5): 6.53 µM (inactive) | GI50 (XF498): 20.7 µM (inactive) | GI50 (COLO 205): 8.89 µM (inactive) | GI50 (A549): 4.07 µM (inactive) | GI50 (DMS-273): 3.8 µM (inactive) | GI50 (HCT-116): 3.54 µM (inactive) | GI50 (ACHN): 11.9 µM (inactive) | GI50 (OVCAR-3): 2.72 µM (inactive) | GI50 (OVCAR-8): 5.92 µM (inactive) | GI50 (EKVX): 2.62 µM (inactive) | GI50 (HL-60): 2.34 µM (inactive) | GI50 (786-0): 5.65 µM (inactive) | GI50 (SN12C): 11.5 µM (inactive) | GI50 (HOP-62): 11 µM (inactive) | GI50 (M19-MEL): 5.19 µM (inactive) | GI50 (DLD-1): 5.4 µM (inactive) | GI50 (NCI-H522): 2.61 µM (inactive)
